Assays:
[1] = test system: septin structures in MV3 melanoma xenografts; assay: Septin foci at invasive front of MV3 SEPT6-GFP xenograft tumors (ctASLM); type: in vivo, NOD SCID mice; settings: mice with MV3 SEPT6-GFP tumors, FCF via oral gavage
From the text: NOD SCID mice were flank-injected with SEPT6-GFP-expressing MV3 melanoma cells to form xenograft tumors. Once tumors were palpable at injection sites they were dissected out with surrounding stroma, fixed, cleared, and imaged via cleared tissue axially-scanned lightsheet microscopy (ctASLM) to observe and quantify bleb formation and septin structure formation. As shown in FIG. 18A and FIG. 18B these in vivo experiments recapitulated in vitro results described previously, showing blebby morphologies with associated punctate septin structures (FIG. 18A). Importantly, this phenotype was exclusively observed at the invasive front of tumors, where cells lose contact to surrounding tissue, and not in the densely packed tumor core (FIG. 18B). These findings agree with previous research showing that blebby amoeboid-like cells are enriched at tumor invasive fronts. […] Furthermore, they support the idea that such bleb-associated septin signaling hubs are relevant in disease progression in human patients.
Specifically, FIG. 20A and FIG. 20B depict graphs illustrating the feasibility of anti-septin therapy in vivo. In triplicate experiments, mice growing tumors formed with SEPT6-GFP expressing MV3 melanoma cells (using the methods described in Example 8 above) were treated with FCF via oral gavage and septin structures were analyzed. […]

MV3 cells = assay: Caspase activity assay (CellEvent Caspase-3/7) in MV3 cells; type: cell-based, human; settings: detached MV3 cells, 4 h, 10 μg/mL WGA
Experimental: Detached/Adhered Cell Culture. […] Drug treatments, solvent-only controls, or CellEvent caspase activity sensor were added to suspensions if appropriate to the experiment, and then immediately transferred to both an uncoated (for detached cells) and ibiTreated (for adhered cells) 8-well ibidi u-slide (ibidi cat #80821 and 80826) at 200 μl/well. Both slides were stored at 37° C. and 5% CO2 for either 24 hours (hrs) for viability assays, 3 hrs for ERK activity assays or 4 hours for caspase activation assays. Uncoated slides (detached) were nutated at 20 rpm during this time. […]
Viability, ERK Activity, and Caspase ActivityCell Counting Assays. Viability, ERK activity, and caspase activity assays were analyzed using live-cell fluorescent and phase-contrast microscopy, performed on a Nikon Ti microscope equipped with an environmental chamber held at 37° C. and 5% CO2 at 20× magnification. […] Live and dead cells (as identified by significant cellular ethidium signal) were counted using the Cell Counter ImageJ plugin. For ERK activity assays, live cells carrying ERK-nKTR-GFP and H2B-mCherry were imaged after 3 hours of experimental conditions and high/low ERK activity cells were counted with Cell Counter ImageJ plugin. […] Caspase positive and negative cells (as identified by significant cellular CellEvent signal) were counted using the Cell Counter ImageJ plugin.

Row | Compound | intensity of septin foci at the invasive front [1] | number of septin foci at the invasive front [1] | caspase activation (MV3 cells)
1 | O=C(Nc1ccccc1)Nc1ccnc(Cl)c1 [FCF, forchlorfenuron] | dimmer | significantly fewer | 
2 | wheat germ agglutinin [WGA] |  |  | consistent and specific increase of caspase activation
